{"source": "patent US20250367145A1", "about": "“COMPOUNDS FOR USE IN THE TREATMENT OF KIDNEY DISEASES” (Universitätsmedizin Greifswald, priority 2022, published 2025)", "key": {"[1]": {"system": "Tg(nphs2:GAL4-VP16); Tg(UAS:Eco.nfsB-mCherry) zebrafish larvae", "assay": "Edema progression in zebrafish larvae after MTZ podocyte injury (FSGS model), edema types 1-4", "format": "in vivo", "settings": "for edema progression/formation at 10 μM: 10 μM compound in conjunction with MTZ, compared to MTZ group; for edema progression/formation at 10 μM / most effective concentration for prevention of proteinuric edema: until 8 dpf; for lethality at 100 μM: 100 μM compound in conjunction with MTZ (2 days); for effect in terms of proteinuric edema progression/formation: injury model, in conjunction with MTZ; for progression of podocyte injury induced in the disease model: zebrafish larvae model of FSGS, effects concentration-dependent; for most effective concentration for prevention of proteinuric edema: different concentrations in conjunction with MTZ", "protocol": "The results are depicted in FIG. 4. A treatment for 48 hours from 4 to 6 dpf with MTZ induces edema formation of four different severities in this strain, scaling from type 1=no edema to type 4=severe edema (FIG. 3). Edema severity of larvae treated with DMSO, MTZ and MTZ plus 1 μM, 10 μM or 100 μM belinostat was categorized at 6, 7 and 8 dpf (FIG. 4). […] Co-treatment with MTZ and 100 μM belinostat induced edema formation in 15% of larvae with 0% type 4 edema in contrast to 60% edema with 31% type 4 edema in the MTZ group. At 7 dpf, progression of edema formation was decelerated in all three groups for all three types of edema that received belinostat, again in a dose-dependent manner. MTZ caused type 4 edema in 56.4% of larvae at 7 dpf, contrary to 1.9% edema in the MTZ+100 μM belinostat group. […] 83.6% of larvae treated with MTZ developed edema with 58.2% showing type 4 edema. […] 10 μM belinostat+MTZ induced edema 80% of larvae with 34.5% type 4 edema. Co-treatment of MTZ with 100 μM belinostat caused edema formation in 64.2% of larvae with 28.3% type 4 edema (FIG. 4).\nFIG. 3 depicts the different degrees of podocyte injury progression: 1: no edema, 2: slight edema, 3: moderate edema, 4: severe edema. Black arrowheads show periocular and blank arrowheads depict abdominal edema. Scale bar: 500 μm.\nFIG. 4 depicts the results of Example 3, measuring the edema progression in larvae that were treated with different concentrations of belinostat in conjunction with MTZ. Edema progression was measured according to the categories of in larvae until 8 dpf following MTZ injury with various concentration of belinostat (DMSO n=52, MTZ n=55, MTZ+1 μM belinostat n=52, MTZ+10 μM belinostat n=55, MTZ+100 μM belinostat n=53)."}, "[2]": {"system": "podocytes / glomerular filtration barrier of MTZ-injured zebrafish larvae", "assay": "Zebrafish larvae podocyte injury screening: vascular eGFP (proteinuria) and glomerular mCherry (podocyte depletion) fluorescence ratios", "settings": "for podocyte protection in drug library screen: co-treatment 80 μM MTZ + 100 μM compound, 24 h from 4 to 5 dpf, 12 larvae per compound", "protocol": "Groups of 12 larvae from one clutch were distributed into a 24-well plate (#662160 Greiner, Frickenhausen, Germany). For each clutch, 12 larvae were treated with 0.2% DMSO in E3 as negative control and 12 larvae were treated with 80 μM Metronidazole (MTZ) in DMSO in E3 as injury control and comparison group. The Fraunhofer ScreeningPort IME provided an epigenetic drug library which was used for this screening (Table 1). […] The treatment volume was 400 μl for each well with 12 larvae, the wells were sealed with Adhesive Clear PCR Seal (#600208, Biozym Scientific GMBH, Hessisch-Oldendorf) in order to prevent evaporation and plates were incubated at 28.5° C., wrapped in aluminum foil to prevent effects of light. After 24 hours, compounds were washed out in three changes of 0.5×E3.\nAfter washout at 5 dpf, E3 in the 12-well plate was replaced with E3 containing 0.4 mg/ml tricaine. Larvae were then individually transferred into wells of a 96-well plate (#644101, Greiner) which was prepared with custom agarose molds. For the molds, 45 μl of 0.7% boiling hot agarose (Biozym LE agarose) were transferred with a multichannel pipette into each well. After 3 min cooldown, a custom 3D printed orientation tool (Wittbrodt, Jonas N., Urban Liebel, and Jochen Gehrig. “Generation of orientation tools for automated zebrafish screening assays using desktop 3D printing.” BMC biotechnology 14.1 (2014): 1-6) was inserted into the agarose which produced cavities for orientation. Each larva was transferred with 100 μl tricaine containing E3 into the single wells of the 96-well plate (Row A was always 12×DMSO, Row B was always 12×MTZ, Row C-H were compounds+MTZ) and was then oriented laterally in the molds with a short piece of fishing line glued to a bend injection needle under the stereomicroscope manually with special attention to a flat caudal region.\nImage acquisition for the screening was performed with an Imaging Machine ([…] Imaging GmbH, Heidelberg, Germany). […] Overview images of each laterally oriented larva were obtained with a 2× objective (40% LED intensity, 30 ms integration). For each larva, a region of interest (ROI) at the tail region caudal of the cloaca was selected with the Acquifer PlateViewer (V1.7.1, […]) for the 10× objective in order to image the blood flow and vasculature. After creating custom modificated imaging scripts via FIJI (Schindelin, Johannes, et al. “Fiji: an open-source platform for biological-image analysis.” Nature methods 9.7 (2012): 676-682), 10 consecutive brightfield frames at a framerate of 33 Hz were acquired (10× objective, 100% LED intensity, 30 ms integration) followed by one frame at 470 nm (10× objective, 50% LED intensity, 50 ms integration). […] The focal plane for both acquisitions was detected with a built-in two-step software autofocus (10× objective, 2×2 binning, 10% LED intensity, 10 ms integration, first step: 31 slices with 50 μm distance, second step: 10 slices with 10 μm slice distance, brightfield for the caudal vasculature, 555 nm for glomerular mCherry).\nFollowing image acquisition, tricaine-containing E3 was washed out two times of each well and replaced by 150 μl E3. […] In this way, two values for the vascular eGFP fluorescence and two values for the glomerular mCherry fluorescence were obtained for each individual larva."}, "[3]": {"system": "wildtype (AB/TU strain) zebrafish larvae", "assay": "Toxicity of belinostat treatment on wildtype zebrafish larvae", "format": "in vivo", "settings": "250 μM belinostat, treated for 48 hours, at day 8", "protocol": "Larvae were treated for 48 hours and edema as well as malformations were assessed until 8 dpf."}, "Mice (C57BL/6)": {"system": "Mice (C57BL/6)", "assay": "NTS (nephrotoxic serum) induced glomerular injury in mice, plasma creatinine", "format": "in vivo, mouse", "settings": "NTS with low dose belinostat (25 mg/kg) compared to NTS injury group", "protocol": "Mice (C57BL/6) were treated with PBS (healthy control), NTS (nephrotoxic serum, injury control), NTS with low dose belinostat (25 mg/kg) and NTS with high dose belinostat (50 mg/kg)."}, "[4]": {"settings": "10 μM compound + 80 μM MTZ vs MTZ alone"}}}
{"smiles": "CC(C)[C@H](C(=O)Nc1ccc(C(=O)NO)cc1)c1ccccc1", "note": "[AR-42, N-hydroxy-4-[[(2S)-3-methyl-2-phenylbutanoyl]amino]benzamide]", "values": [{"measurement": "edema progression/formation at 10 μM", "setting": "[1]", "result": "able to prevent proteinuric edema"}, {"measurement": "lethality at 100 μM", "setting": "[1]", "result": "lethal"}, {"measurement": "effect in terms of proteinuric edema progression/formation", "setting": "[1]", "result": "protective effect"}, {"measurement": "progression of podocyte injury induced in the disease model", "setting": "[1]", "result": "significantly slowed the progression of podocyte injury"}]}
{"smiles": "C#Cc1cccc(Nc2ncnc3cc(OC)c(OCCCCCCC(=O)NO)cc23)c1", "note": "[CUDC-101, 7-[4-(3-ethynylanilino)-7-methoxyquinazolin-6-yl]oxy-N-hydroxyheptanamide]", "values": [{"measurement": "most effective concentration for prevention of proteinuric edema", "setting": "[1]", "result": 10, "unit": "µM"}, {"measurement": "effect in terms of proteinuric edema progression/formation", "setting": "[1]", "result": "protective effect"}, {"measurement": "progression of podocyte injury induced in the disease model", "setting": "[1]", "result": "significantly slowed the progression of podocyte injury"}]}
{"smiles": "O=C(/C=C/c1ccc(CN(CCO)CCc2c[nH]c3ccccc23)cc1)NO", "note": "[Dacinostat, (E)-N-hydroxy-3-[4-[[2-hydroxyethyl-[2-(1H-indol-3-yl)ethyl]amino]methyl]phenyl]prop-2-enamide]", "values": [{"measurement": "edema progression/formation at 10 μM", "setting": "[1]", "result": "successfully prevented edema formation"}, {"measurement": "lethality at 100 μM", "setting": "[1]", "result": "lethal"}, {"measurement": "effect in terms of proteinuric edema progression/formation", "setting": "[1]", "result": "protective effect"}, {"measurement": "progression of podocyte injury induced in the disease model", "setting": "[1]", "result": "significantly slowed the progression of podocyte injury"}]}
{"smiles": "O=C(CCCCCN1C(=O)c2cccc3cccc(c23)C1=O)NO", "note": "[Scriptaid, 6-(1,3-Dioxo-1H,3H-benzo[de]isoquinolin-2-yl)-N-hydroxyhexanamide]", "values": [{"measurement": "edema progression/formation at 10 μM", "setting": "[1]", "result": "successfully prevented edema progression"}, {"measurement": "lethality at 100 μM", "setting": "[1]", "result": "in the lethal range"}, {"measurement": "effect in terms of proteinuric edema progression/formation", "setting": "[1]", "result": "protective effect"}, {"measurement": "progression of podocyte injury induced in the disease model", "setting": "[1]", "result": "significantly slowed the progression of podocyte injury"}]}
{"smiles": "O=C(CCCCCCC(=O)Nc1ccccc1)NO", "note": "[Vorinostat, N′-hydroxy-N-phenyloctanediamide]", "values": [{"measurement": "formation of moderate (type 3) edema", "setting": "[1]; 100 μM compound in conjunction with MTZ, 6 dpf", "result": "able to prevent formation of moderate edema"}, {"measurement": "effect in terms of proteinuric edema progression/formation", "setting": "[1]", "result": "protective effect"}, {"measurement": "progression of podocyte injury induced in the disease model", "setting": "[1]", "result": "significantly slowed the progression of podocyte injury"}]}
{"smiles": "O=C(/C=C/c1cccc(S(=O)(=O)Nc2ccccc2)c1)NO", "note": "[belinostat, (2E)-N-hydroxy-3-[3-(phenylsulfamoyl)phenyl]prop-2-enamide]", "values": [{"measurement": "loss of podocyte mCherry fluorescence (glomerular fluorescence ratio 6 dpf/5 dpf)", "setting": "[2]; [4]", "result": "significantly reduced loss of podocyte mCherry fluorescence"}, {"measurement": "renal leakage of 78 kDa VDP-eGFP through the glomerular filtration barrier (vascular eGFP fluorescence ratio 6 dpf/5 dpf)", "setting": "[2]; [4]", "result": "could prevent the renal leakage"}, {"measurement": "harmful effect on the glomerular filtration barrier or podocyte vitality", "setting": "[2]; 10 μM compound alone, without MTZ injury", "result": "no harmful effect"}, {"measurement": "podocyte protection in drug library screen", "setting": "[2]", "result": "podocyte-protective"}, {"measurement": "larvae with type 4 edema", "setting": "[1]; MTZ + 1 μM belinostat, 8 dpf (MTZ group 58.2%)", "result": 44.2, "unit": "%"}, {"measurement": "larvae with edema formation", "setting": "[1]; MTZ + 1 μM belinostat, 8 dpf (MTZ group 83.6%)", "result": 80.8, "unit": "%"}, {"measurement": "larvae with type 4 edema", "setting": "[1]; MTZ + 10 μM belinostat, 8 dpf (MTZ group 58.2%)", "result": 34.5, "unit": "%"}, {"measurement": "larvae with edema formation", "setting": "[1]; MTZ + 10 μM belinostat, 8 dpf (MTZ group 83.6%)", "result": 80, "unit": "%"}, {"measurement": "larvae with type 4 edema", "setting": "[1]; MTZ + 100 μM belinostat, 6 dpf (MTZ group 31%)", "result": 0, "unit": "%"}, {"measurement": "larvae with edema formation", "setting": "[1]; MTZ + 100 μM belinostat, 6 dpf (MTZ group 60%)", "result": 15, "unit": "%"}, {"measurement": "larvae with edema (contrasted with type 4 edema of MTZ group)", "setting": "[1]; MTZ + 100 μM belinostat, 7 dpf (MTZ group type 4 edema 56.4%)", "result": 1.9, "unit": "%"}, {"measurement": "larvae with type 4 edema", "setting": "[1]; MTZ + 100 μM belinostat, 8 dpf (MTZ group 58.2%)", "result": 28.3, "unit": "%"}, {"measurement": "larvae with edema formation", "setting": "[1]; MTZ + 100 μM belinostat, 8 dpf (MTZ group 83.6%)", "result": 64.2, "unit": "%"}, {"measurement": "progression of edema formation", "setting": "[1]; MTZ + 1, 10 or 100 μM belinostat, 7 dpf, dose-dependent", "result": "decelerated"}, {"measurement": "number of larvae with type 3 and 4 edema", "setting": "[1]; MTZ + 1, 10 or 100 μM belinostat, after washout at 6 dpf, dose-dependent", "result": "reduced number of larvae with type 3 and 4 edema"}, {"measurement": "edema progression with continuous treatment", "setting": "[1]; MTZ from 4-6 dpf and continuously belinostat until 8 dpf, vs belinostat until day 6", "result": "ameliorated most"}, {"measurement": "delay in edema formation", "setting": "[1]; belinostat treatment groups, 8 dpf", "result": "stayed consistent"}, {"measurement": "progression of podocyte injury induced in the disease model", "setting": "[1]", "result": "significantly slowed the progression of podocyte injury"}, {"measurement": "larvae for which treatment is lethal", "setting": "[3]", "result": 35, "unit": "%"}, {"measurement": "plasma creatinine concentration", "setting": "Mice (C57BL/6)", "result": "reduce plasma creatine concentrations significantly"}]}
{"smiles": "O=C(/C=C/C#Cc1cccc(NS(=O)(=O)c2ccccc2)c1)NO", "note": "[oxamflatin, 5-[3-(benzenesulfonamido)phenyl]-N-hydroxypent-2-en-4-ynamide]", "values": [{"measurement": "podocyte protection in drug library screen", "setting": "[2]", "result": "podocyte-protective"}, {"measurement": "most effective concentration for prevention of proteinuric edema", "setting": "[1]", "result": 100, "unit": "µM"}, {"measurement": "progression of podocyte injury induced in the disease model", "setting": "[1]", "result": "significantly slowed the progression of podocyte injury"}]}
